# Data reported in patent US20090187040A1, “FENOFIBRIC ACID POLYMORPHS; METHODS OF MAKING; AND METHODS OF USE THEREOF” (priority 2008, published 2009).
# Assays:
# [1] = cited from earlier work
# [2] = Fenofibric acid polymorph slurry study (form by XRPD or Raman); format: physicochemical; settings: for relative thermodynamic stability of the enantiotropically related forms: Form A versus Form B, by temperature
# Description: Approximately 30-45 mg in combination of Form B and Form A are weighed to an 8-mL vial outfitted with a stir bar. Solvent (water, toluene, and 1:1 water/IPA, DCM or MeCN) in the amount of 1 mL is added. The samples are sealed with a Teflon cap and parafilm and then placed on a magnetic stirrer at room temperature or 45° C. An aliquot is then sampled after 7 days and 21 days for determination of form by XRPD or Raman (Table 7).
# Solubility in water = format: physicochemical; settings: noted in lyophilization example
# [3] = Grinding study of Form B in a ball mill (XRPD); format: physicochemical; settings: ground for 30 seconds using a ball mill
# Description: Approximately 50 mg of Form B is ground for 30 seconds using a ball mill and the resulting material is analyzed by XRPD.
smiles,measurement,setting,value
"CC(C)OC(=O)C(C)(C)Oc1ccc(C(=O)c2ccc(Cl)cc2)cc1 [Fenofibrate, 2-[4-(4-chlorobenzoyl)phenoxy]-2-methyl-propanoic acid, 1-methylethyl ester]",effect on high-density lipoprotein (HDL) and apoproteins apoAI and apoAII,[1]; treatment with fenofibrate,results in increases
"CC(C)(Oc1ccc(C(=O)c2ccc(Cl)cc2)cc1)C(=O)O [Fenofibric acid, 2-[4-(4-chlorobenzoyl)phenoxy]-2-methyl-propanoic acid]","effect on total cholesterol, LDL cholesterol, apolipoprotein B, total triglycerides and triglyceride rich lipoprotein (VLDL)",[1]; treated patients,produces reductions
"CC(C)(Oc1ccc(C(=O)c2ccc(Cl)cc2)cc1)C(=O)O [Form A + B, 2-[4-(4-chlorobenzoyl)phenoxy]-2-methyl-propanoic acid]","Form, 21 Days (XRPD/Raman)","[2]; slurry in Toluene 1 mL, 45 °C",A + B
same,"Form, 7 Days (XRPD/Raman)","[2]; slurry in Water 1 mL, RT",A + B
"CC(C)(Oc1ccc(C(=O)c2ccc(Cl)cc2)cc1)C(=O)O [Form A, 2-[4-(4-chlorobenzoyl)phenoxy]-2-methyl-propanoic acid]",relative thermodynamic stability of the enantiotropically related forms,[2],"more stable at elevated temperatures (e.g., above about 45° C.)"
same,"Form, 7 Days (XRPD/Raman)","[2]; slurry in DCM 1 mL, 45 °C",A + B
same,"Form, 21 Days (XRPD/Raman)","[2]; slurry in DCM 1 mL, 45 °C",A + B
same,"Form, 21 Days (XRPD/Raman)","[2]; slurry in Water 1 mL, RT",Diffuse
same,solubility in water,Solubility in water,limited solubility
"CC(C)(Oc1ccc(C(=O)c2ccc(Cl)cc2)cc1)C(=O)O [Form B, 2-[4-(4-chlorobenzoyl)phenoxy]-2-methyl-propanoic acid]",relative thermodynamic stability of the enantiotropically related forms,[2],"more thermodynamically stable at lower temperatures (e.g., room temperature)"
same,"Form, 7 Days (XRPD/Raman)","[2]; slurry in DCM 1 mL, 45 °C",A + B
same,"Form, 21 Days (XRPD/Raman)","[2]; slurry in DCM 1 mL, 45 °C",A + B
same,form observed after grinding (XRPD),[3],Form A is observed
